# Laboratory results reported in patent US20060257875A1, “Affinity screening using "one-bead-one-compound" libraries” (Carlsberg A/S, priority 2003, published 2006).
# Non-standard residues stand in square brackets, D forms with d. No end group written: not given here. T(Sa) = sialic acid threonine lactam (threonine bearing sialic acid, its amine closed onto the sugar)
# Tests used:
# [1] = tested on: normal porcine macrophage proteins; test: Solid phase screening of small molecule Library 7 with labeled viral and porcine macrophage proteins; assay type: binding; details: Normal Macrophages
# Description: (§1) Alternatively, the fluorescent ligand library beads containing bound protein obtained as described in Examples 47, 48, 49 and 51 were sorted using a COPAS (250) NF Bead Sorter (Union Biometrica, Somerville, Mass.) equipped with a dual detector. Both the cyanine dyes used in the labeling procedure, namely Cy 2 (emission wavelength—510 nm) and Cy 3 (emission wavelength—570 nm) were simultaneously excited at […] The bead selection window was then set-up such that all beads containing significant green fluorescence and no red flourescence were isolated. The unselected beads were then resorted to obtain beads containing red fluorescence (proteins from basal cells). The selected red and green fluorescent beads were then sorted into brightly and less brightly fluorescent beads, to give an indication of either the strength of binding of the ligand to a particular protein or the amount of protein present in the sample binding to the ligand.
# (§2) Ligands can be completely or partially identified by MALDI_TOF-MS whether or not the library is synthesized by ladder synthesis. […] The ligand is cleaved from the resin bead depending on the type of linker used. […] Peptide fragments (ladder synthesis) or single compounds were extracted from the bead with 0.5 AL CH3CN, then 0.5 FL 70% CH3CN/H2O. […] In the case of the acid labile Rink linker (Library 7), the compound was released from the bead by treatment with 95% TFA or 30 min. The TFA solution was evaporated and the cleaved compounds were extracted in 2 μL 70% acetonitrile+0.1% TFA. This mixture was then transferred to a stainless steel disc to which 0.4 μL of CHC matrix+1.0% TFA was added. An additional 0.4 μL of CHC matrix+1.0% TFA was added to complete sample application.
# (§3) A typical analysis employed 100-300 laser shots. […] A typical analysis employed 200-300 laser shots. The possible identity of the ligand was determined (Narrowed down) by comparing the recorded mass of the ligand with the masses of all possible compounds formed in the library. This comparison was carried out using an in-house created computer program The precise identity of the ligand can then be confirmed using MS fragmentation as described in Example 41.
# (§4) Isolated proteins that bound to specific ligands were identified using peptide mass fingerprinting. Mass spectra were recorded on a Bruker Reflex m MALDI time-of-flight mass spectrometer (Bruker-Daltonics, Bremen, Germany) operated in the positive reflectron mode using delayed extraction. Measurements were performed using the following parameters: Power 83-84 V; lens 7.300. The sum of 200-300 shots was used for each spectrum.
# (§5) The spectra were calibrated using bradykinin peptide. In some cases, internal mass calibration was performed using a porcine trypsin autolysis product Peptide masses were searched against peptide mass maps in the National Center for Biotechnology Information (NCBI) database using the following search engines found on the world wide web (www.) for each of: • MS-FIT (prospector.ucsf.edu/ucsfhtml/msfit.htm), • Profound (129.85.19.192/profound_biniWebProFound.exe), and • MASCOT (matrixscience.com).
# (§6) A search was performed using the NCBI bacterial (E. coli) database and the mammalian databases for the isolated proteins from the E. coli and myocyte samples, respectively, and the Swiss Prot mammalian databases and the Swiss Prot viral databases were searched to identify the porcine macrophage proteins and proteins, respectively. A molecular mass range was estimated from 0-250 K Da, allowing a mass accuracy that varied from 0.1 Da (some cases 0.3 Da) for each peptide mass. A large pI range from 0-14 or 0-12 was considered for each search. If no proteins matched, the mass window was extended. Partial enzyme cleavages allowing for two missed cleavage sites and modification of cysteine by alkylation were considered in the search approaches. A protein was considered identified if the matched peptides covered at least 30% of the complete sequence. […]
# [2] = tested on: porcine reproductive and respiratory virus infected macrophage proteins; test: as above; assay type: binding; details: Virus-infected Macrophages, (V) indicates virus proteins
# Description: as §1, §2, §3, §4, §5, §6
# [3] = tested on: normal/healthy myocyte proteins; test: Solid phase screening of small molecule biaryl Library 7 with labeled myocyte proteins; assay type: binding, neonatal Wistar rats; details: Normal Myocytes
# Experimental: Myocytes were prepared from 1 to 5 day old neonatal Wistar rats (University of Copenhagen) according to literature procedure described in Busk et al., 2002, Cardiovasc. Res., 56: 64-75 and plated into eight P10 culture plates at 6 million cells/plate.
# In another case, fluorescent dye Cyanine 3 (Cy 3) (Molecular Probes) was used to label the healthy/basal cells while Cyanine 2 (Cy 2) (Molecular Probes) was used to label the PE-treated cells. The labeling procedures were carried out according to the manufacturer's protocol. The protein solutions (0.35 mL, 100 μg for PE cells and 0.41 mL, 100 μg for basal cells) were dialyzed against a solution of 10 mM phosphate buffer, 0.15 M NaCl, pH 7.5 and then 1 M NaHCO3 (0.03-0.04 mL) was added to obtain a final pH between 8.0-9.0. For efficient labeling, […] fluor (5 μL solution was prepared by addition of […] of reconstituted fluorophore solution [1 nmol μL] and 3 μL of dry DMF) was used to label 50 μg of protein. The fluorophore and the protein solution are mixed thoroughly by vortexing. The samples are then centrifuged briefly in a microfuge and left on ice for 30 min in the dark. To stop the reaction, 10 mM lysine (1 μL) was added to the samples and the samples were mixed by vortexing and centrifuged briefly in a microfuge. The samples were left on ice for 10 min in the dark. The labeled protein solutions were dialyzed extensively against 10 mM phosphate buffer, 0.15 M NaCl, pH 7.5, to remove excess dye. Labeled samples were stored for at −70° C. in the dark until further use.
# as §1, §2
# A typical analysis employed 100-300 laser shots. […] The possible identity of the ligand was determined (Narrowed down) by comparing the recorded mass of the ligand with the masses of all possible compounds formed in the library. […]
# [4] = tested on: Serum induced Myocytes proteins; test: Solid phase screening of Library 5 with labeled myocyte protein; assay type: binding, neonatal Wistar rats
# [5] = tested on: E. coli membrane proteins; test: Solid phase screening of Library 2 with labeled E. coli membrane proteins; bound proteins identified by tryptic digest and peptide mass fingerprinting; assay type: binding, Escherichia coli DH 5α-136; details: Library 2 ligand on bead
# Experimental: A 400 mL culture of Escherichia coli DH 5α-136 (Carlsberg Research Center Collection) was prepared according to the procedures described in Hanahan, 1985, In: DNA Cloning, Vol 1, Glover, D., ed., IRL Press Ltd, pp. 109-135. […]. The media containing extracellular protein was retained and the pellet washed once with PBS, pH 7.6 (cellular weight=2.22g).
# Isolation of E. coli membrane proteins was achieved through modification of published literature procedures: Auer, et al., 2001, Biochemistry, 40:6628-6635, and Molloy, et al., 2000, Eur. J. Biochem. 267:2871-2881. After incubation of E. coli cells for 2 days, washed cells were scraped from plates and centrifuged as described above for Example 10. The cell pellet (approximately 1 g) was suspended in 50 mM Tris HCl, pH 7.5 and pressed (2×) in a French Press at 1500 Psi. The resulting suspension was centrifuged at 2500×g for 10 minutes. The ice cold supernatant was diluted with 2.5 ml of ice-cold 0.1 M sodium carbonate buffer 11 and the solution stirred on ice for 1 hour. Ultracentrifugation was then carried out at 115, 000×g for 1 to 1.5 hours at 4° C., yielding Pellet 1 and Supernatant 1. The membrane pellet 1 was resuspended in 50 mM Tris HCl, pH 7.5 and the pellet was recollected after centrifugation for an additional 20 minutes at 115,000×g, yielding Pellet 2 and supernatant 2. Pellet 2 was solubilized in 50 mM Tris HCl, pH 7.5 containing 10 MM imidazole, 0.5 mM PMSF, 20% glycerol, and 1% Dodecyl Maltoside (DM) or 33 mM Octyl Glucoside (OG) for 30 mninutes at 4° C. The suspension was then centrifuged for 10,000 g for 30 minutes. The pellet and supernatant obtained were labeled Pellet 3 and supernatant 3.
# The protein was labeled with amino reactive succinylanthranilate dye (blue) DDM (0.49 mg dye) and OG (0.03 mg dye) according to the same protocol used in the extracellular labeling described above for Example 12. The labeling stopping reaction (hydroxylamine hydrochloride addition) was not used in this case, to avoid dilution of the protein. The mixture was dialyzed overnight against 10 mM PBS buffer, pH 6.8 containing 0.01 MM ZnCl2, 0.01 mM CaCl2, 0.01 mM MnCl2, and 0.01 mM MnSO4, against a three time buffer change.
# The ligand library was then washed, and E. coli labeled membrane protein, prepared as described above for Example 13, was added (0.1 ml). The ligand library and protein mixture was incubated overnight at room temperature.
# as §2
# A typical analysis employed 100-300 laser shots. […] A typical analysis employed 200-300 laser shots. The possible identity of the ligand was determined (Narrowed down) by comparing the recorded mass of the ligand with the masses of all possible compounds formed in the library. […]
compound,measurement,setting,value
Cc1ccc(-c2csc(C(=O)NCC(=O)O)c2)cc1,Identified Protein(s),[1],Salt inducible kinase 2 (27529963); PVHL-ubiqquitin interacting enzyme 2 (23208620); Similar to glyceral- dehyde-3-phosphate dehydrogenase (gi27686413)
O=C(O)[C@@H]1CCCN1C(=O)c1ccc(-c2ccco2)o1,Identified Protein(s),[1],Salt inducible kinase 2 (27529963); PVHL-ubiqquitin interacting enzyme 2 (23208620); Similar to glyceral- dehyde-3-phosphate dehydrogenase (gi27686413)
COc1ccccc1-c1ccc(C(=O)NCC(=O)O)o1,Identified Protein(s),[1],Salt inducible kinase 2 (27529963); PVHL-ubiqquitin interacting enzyme 2 (23208620); Similar to glyceral- dehyde-3-phosphate dehydrogenase (gi27686413)
COc1ccc(-c2ccc(C(=O)NCC(=O)O)o2)cc1,Identified Protein(s),[1],Salt inducible kinase 2 (27529963); PVHL-ubiqquitin interacting enzyme 2 (23208620); Similar to glyceral- dehyde-3-phosphate dehydrogenase (gi27686413)
NC[C@H](NC(=O)c1cccc(-c2ccco2)n1)C(=O)O,Identified Protein(s),[1],Salt inducible kinase 2 (27529963); PVHL-ubiqquitin interacting enzyme 2 (23208620); Similar to glyceral- dehyde-3-phosphate dehydrogenase (gi27686413)
COc1ccc(-c2ccc(C(=O)O)cc2)c(OC)c1C(=O)N[C@@H](Cc1c[nH]cn1)C(=O)O,Identified Protein(s),[2],Carbohydrate (chondroitin synthase 2) (28466981); Glucosidase II alpha-subunit (gi5452936); Similar to chromosome 9 reading frame 24 (gi29437020) (V) Envelope glycoprotein C2V3 region (gi3925092); Envelope glycoprotein (gi15705767)
COc1ccc(OC)c(-c2ccc(OC)c(C(=O)N[C@@H](Cc3c[nH]cn3)C(=O)O)c2OC)c1,Identified Protein(s),[2],Carbohydrate (chondroitin synthase 2) (28466981); Glucosidase II alpha-subunit (gi5452936); Similar to chromosome 9 reading frame 24 (gi29437020) (V) Envelope glycoprotein C2V3 region (gi3925092); Envelope glycoprotein (gi15705767)
COc1ccc(OC)c(-c2ccc(C(=O)N[C@@H](Cc3ccc(OC)c(OC)c3)C(=O)O)o2)c1,Identified Protein(s),[2],Carbohydrate (chondroitin synthase 2) (28466981); Glucosidase II alpha-subunit (gi5452936); Similar to chromosome 9 reading frame 24 (gi29437020) (V) Envelope glycoprotein C2V3 region (gi3925092); Envelope glycoprotein (gi15705767)
COc1ccc(C[C@H](NC(=O)c2ccc(-c3ccc(C(=O)O)cc3)o2)C(=O)O)cc1OC,Identified Protein(s),[2],Carbohydrate (chondroitin synthase 2) (28466981); Glucosidase II alpha-subunit (gi5452936); Similar to chromosome 9 reading frame 24 (gi29437020) (V) Envelope glycoprotein C2V3 region (gi3925092); Envelope glycoprotein (gi15705767)
CC(O)[C@H](NC(=O)c1cc(-c2ccco2)cs1)C(=O)O (stereo partly shown),Identified Protein(s),[2],Unnamed protein product (26336134); Seri- ne/threonine kinase 9/cylin dependent Serine/threonine kinase 9(23271297/4507281); Caveolin 1(gi 4972627/AAD347221) (V) Envelope glycoprotein (gi 3832399)
COc1ccc(Br)c(OC)c1C(=O)N[C@@H](Cc1c[nH]c2ccccc12)C(=O)O,Identified Protein(s),[3],"Cutochrome P450 2C31 (CYPIIC31) (CPCV_CAPAE,Q29478); Fatty acid-binding protein, (FABPI, P0293); Similar to the alpha subunit of protein kinase CK2 (gi 28527943)."
O=C(O)CC(NC(=O)c1ccc(-c2ccco2)o1)c1ccc(-c2ccccc2)cc1 (stereo not shown),Identified Protein(s),[3],"Thyroid receptor interacting protein 11 (TRIP- 11,Q15643); Unnamed protein product (gi 26338976)."
O=C(NC1(C(=O)O)CCc2ccccc2C1)c1cccc(Br)n1 (stereo not shown),Identified Protein(s),[3],"Gap junction beta-5 protein (Connexin 31.1), (Q02739); Hypothetical protein XP1'288677 )gi 208598980)."
CC(=O)N(C[C@@H]1CN(Cc2ccc(C(=O)O)cc2)[C@H]2c3ccccc3C(=O)N12)C1(C(=O)O)CCCC1 [HY6],Identified Protein(s),[4],Myosin chain (Q63358); NF-kappa B-repressing factor (Transcription factor ITBA4 protein) (O15226).
CC(=O)N(C[C@@H]1CN(C(C)C)[C@H]2c3ccccc3C(=O)N12)[C@H]1CCCCN(CC(=O)O)C1=O [HY7],Identified Protein(s),[4],Zinc finger protein 339 (Q9BRPO); DNA repair protein RAD52 homolog (P43351).
COc1ccc(Br)c(OC)c1C(=O)N1CCC(C(=O)O)(c2ccccc2)CC1 [drawing 202],Identified Protein(s),[3],"Centaurin gamma (3) (Q96P47); Poly [ADP-ribose] poly- merase-1 (PARP-1) (ADPRT) (NAD(+) ADP- ribosyltransferase-1) (Poly[ADP-ribose] synthease-1) (P09874); Aortic preferentially expressed protein 1 (APEG-1) Aortic preferentially expressed protein 1 (APG1_RAT, Q63638)."
COc1ccc(Br)c(OC)c1C(=O)N1CCC(C(=O)O)(c2ccccc2)CC1 [drawing 209],Identified Protein(s),[3],"Cutochrome P450 2C31 (CYPIIC31) (CPCV_CAPAE,Q29478); Fatty acid-binding protein, (FABPI, P0293); Similar to the alpha subunit of protein kinase CK2 (gi 28527943)."
T(Sa)-F-G-L-M,Identified Protein(s),[5],(M).
T(Sa)-F-V-W-H,Identified Protein(s),[5],(P).
T(Sa)-H-I-G-Y,Identified Protein(s),[5],"16129807/15831818) (LA, M)"
T(Sa)-H-W-H-L ([T(Sa)]HWHL),Identified Protein(s),[5],(NaDPH) (gi 2121143).
T(Sa)-H-W-V-V,Identified Protein(s),[5],(M).
